Test results taken from PMC12475274, “Harnessing indole scaffolds to identify small-molecule IRE1α inhibitors modulating XBP1 mRNA splicing” (Nature Communications, 2025).
Values joined by “and” are separate entries in the source; they are usually repeats but may differ in a detail not shown here. Equal entries are not always repeated.

How the values were obtained:
[1] = tested on: IRE1α; conditions: Fig. 1b; read-out: IC50 of reported IRE1α inhibitor; cited from earlier work
[2] = tested on: XBP1 mRNA splicing in A549 cells; assay: RT-qPCR of ER stress-induced XBP1 mRNA splicing, A549; type: cell-based, human; conditions: Fig. 7c, 0.5μg/mL Tm, individual replicates
Procedure: (§1) A549 cells, HCT 116 cells, and HT-29 cells were collected and seeded in 6-well plates at a density of 5 × 10^5 cells per well and cultured overnight to attach, then treated with compound or DMSO for 2 h, then 0.5 μg/mL final concentration of tunicamycin (Tm, MP Biomedi, 0215002805) were added to induce the ER stress for 2 h. After treatment, total RNA was purified using an RNeasy mini kit (Qiagen, 74106). 500 ng of total RNA was used for reverse transcription using the High-Capacity cDNA Reverse Transcription Kits (Thermo Fisher, 4368814). cDNA was diluted 1: 5 using RNase-free water, and 1 μL CDNA was used for each qPCR reaction. The qPCR was performed using PowerUp™ SYBR™ Green Master Mix (Thermo Fisher, A25742) with 10 µL reaction volume using Bio-Rad CFX96 Real-Time PCR Detection System following the standard cycling mode (primer Tm ≥ 60 °C) on the manufacturer’s protocol. Data was analyzed using the 2^- ΔΔCt method. The primers used are listed in Supplementary Table S3. The inhibition % was calculated by using the equation: inhibition% = 100× (normalized Tm control - normalized of the sample)/(normalized Tm control - normalized DMSO control). Tm control: Cells treated with tunicamycin; DMSO control: Cells treated with DMSO only.

[3] = tested on: XBP1 mRNA splicing in HCT 116 cells; assay: RT-qPCR of ER stress-induced XBP1 mRNA splicing, HCT 116; type: cell-based, human; conditions: HCT116
Procedure: as §1

[4] = tested on: XBP1 mRNA splicing in HT-29 cells; assay: RT-qPCR of ER stress-induced XBP1 mRNA splicing, HT-29; type: cell-based, human; conditions: HT-29
Procedure: as §1

[5] = tested on: IRE1α transcription level in A549 cells; assay: RT-qPCR of IRE1α transcription level, A549; type: cell-based, human; conditions: A549
Procedure: as §1

[6] = tested on: IRE1α transcription level in HCT 116 cells; assay: RT-qPCR of IRE1α transcription level, HCT 116; type: cell-based, human; conditions: HCT116
Procedure: as §1

[7] = tested on: IRE1α transcription level in HT-29 cells; assay: RT-qPCR of IRE1α transcription level, HT-29; type: cell-based, human; conditions: HT-29
Procedure: as §1

[8] = target: T1, dephosphorylated IRE1α (547–977) (Homo sapiens, UniProt O75460); assay: FRET-based IRE1α RNase activity assay, dephosphorylated IRE1α; type: biochemical
T1 construct: Human IRE1α kinase and RNase domain (residues 547–977) was subcloned into pLIB plasmid; His tag (with TEV cleavage site) (N, cleaved yes); made in house; host or cells: Sf9 insect cells, baculovirus (Bac-to-Bac)
Outline: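 Inhibition came from the linear-phase cleavage rate of 100 nM XBP1-sequence FAM/BHQ1 RNA, monitored at 485/535 nm over one hour and fitted to IC50. Enzyme: 40 nM unphosphorylated IRE1α kinase-RNase domain (547–977), exposed to compound for 30 min at room temperature before substrate, in HEPES pH 7.5 buffer.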

[9] = target: T2, phosphorylated IRE1α (p-IRE1α) (Homo sapiens, UniProt O75460); assay: FRET-based IRE1α RNase activity assay, phosphorylated IRE1α; type: biochemical
T2 construct: Human IRE1α kinase and RNase domain (residues 547–977) was subcloned into pLIB plasmid; His tag (with TEV cleavage site) (N, cleaved yes); made in house; host or cells: Sf9 insect cells, baculovirus (Bac-to-Bac)
Outline: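 Cleavage of a dual-labeled XBP1 RNA (200 nM) was followed kinetically over 1 h at room temperature at 485/535 nm, with initial slopes giving percent inhibition and IC50. Enzyme was 4 nM phosphorylated human IRE1α 547–977 from insect cells, incubated with compound for 30 min before substrate; buffer 20 mM HEPES pH 7.5, KOAc, MgOAc2, DTT, Triton X-100.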

[10] = target: T3, p-IRE1α dimerization and oligomerization (Homo sapiens, UniProt O75460); assay: DSS cross-linking assay with mass photometry; conditions: 100 μM compound, DSS crosslinking
T3 construct: Human IRE1α kinase and RNase domain (residues 547–977) was subcloned into pLIB plasmid; His tag (with TEV cleavage site) (N, cleaved yes); made in house; host or cells: Sf9 insect cells, baculovirus (Bac-to-Bac)
Procedure: Phosphorylated IRE1α (p-IRE1α) and compounds were incubated 30 min at room temperature, with a final concentration of 2 μM p-IRE1α and 100 μM of the indicated compound, in a buffer containing 20 mM HEPES, pH 7.5, 50 mM KOAc, 1 mM MgOAc2, 1 mM DTT, 0.05% v/v TritonX-100, in a total reaction volume of 20 μL. After incubation, DSS (disuccinimidyl suberate, Thermo Fisher, A39267) was added to the reaction at a final concentration of 250 μM to induce crosslinking at room temperature for 1 h. Tris (pH 7.5) was added to a final concentration of 50 mM to stop the reaction. Samples were further measured with a mass photometry instrument (Refeyn Ltd). The PBS buffer was used for the mass photometry measurement. The instrument was calibrated with BSA and TG protein mixture in PBS. Samples were diluted to a protein concentration of 100 nM with buffer before measurement. Then, 18 μL PBS buffer was added to the center of the gasket on the coverslips to check and find the focus. Afterward, 2 μL of the diluted sample was added, mixed, and measured. Data were analyzed using Discover MP software, for each sample, results from 3 individual measurements were merged.

T3 sequence (O75460 547-977): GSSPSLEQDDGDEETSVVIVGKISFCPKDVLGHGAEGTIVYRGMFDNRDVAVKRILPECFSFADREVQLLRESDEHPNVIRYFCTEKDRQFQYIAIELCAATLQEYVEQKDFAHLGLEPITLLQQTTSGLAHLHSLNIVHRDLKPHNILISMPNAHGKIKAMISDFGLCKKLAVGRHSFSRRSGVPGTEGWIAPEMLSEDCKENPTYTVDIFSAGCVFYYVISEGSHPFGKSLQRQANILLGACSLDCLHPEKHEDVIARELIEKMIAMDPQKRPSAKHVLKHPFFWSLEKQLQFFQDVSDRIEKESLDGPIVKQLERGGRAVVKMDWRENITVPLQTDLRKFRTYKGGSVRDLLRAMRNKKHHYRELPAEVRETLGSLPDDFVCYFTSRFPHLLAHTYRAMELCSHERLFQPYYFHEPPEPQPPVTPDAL
T1 sequence (O75460 547-977): as above
T2 sequence (O75460 547-977): as above

## Cc1cc(=O)oc2c(C=O)c(O)ccc12 [Compound 4μ8c]
[1]
  IC50: 0.076 µM

## CN1CCC(CNc2cc(Cl)nn3c(-c4cc5nc(Nc6ccccc6)[nH]c5cc4F)cnc23)CC1 [Compound 31]
[1]
  IC50: 0.08 µM

## Cc1ccc(C)c(NC(=O)NC(C)CCc2ccc(O)cc2)c1 (stereo not drawn) [Compound Z4P]
[1]
  IC50: 3.14 µM

## CCOC(=O)CCc1c(C)n(C(=O)c2ccccc2)c2ccc(Br)cc12 [IA105]
[2]; 0.009 μM
  Relative XBP1s/Actin: 2.671 and 2.32 and 2.971 and 2.381
[2]; 0.027 μM
  Relative XBP1s/Actin: 2.362 and 2.303 and 2.482 and 2.4563
[2]; 0.082 μM
  Relative XBP1s/Actin: 2.039 and 2.057 and 2.192 and 2.023
[2]; 0.247 μM
  Relative XBP1s/Actin: 1.808 and 1.675 and 1.769 and 1.486
[2]; 0.741 μM
  Relative XBP1s/Actin: 1.216 and 1.256 and 1.279 and 1.145
[2]; 2.22 μM
  Relative XBP1s/Actin: 1.073 and 0.792 and 1.044 and 0.8663
[2]; 6.67 μM
  Relative XBP1s/Actin: 1.0995 and 1.154 and 1.208 and 1.113
[2]; 20 μM
  Relative XBP1s/Actin: 1.054 and 1.019 and 1.028 and 0.9077
[3]; 0.009 μM
  Relative XBP1s/Actin: 5.428 and 5.195 and 5.7981 and 4.548
[3]; 0.027 μM
  Relative XBP1s/Actin: 5.989 and 4.76 and 5.372 and 4.813
[3]; 0.082 μM
  Relative XBP1s/Actin: 5.025 and 4.655 and 4.826 and 4.338
[3]; 0.247 μM
  Relative XBP1s/Actin: 4.351 and 4.263 and 4.713 and 3.571
[3]; 0.741 μM
  Relative XBP1s/Actin: 2.654 and 2.493 and 2.725 and 2.232
[3]; 2.22 μM
  Relative XBP1s/Actin: 1.206 and 0.9713 and 1.3073 and 1.15
[3]; 6.67 μM
  Relative XBP1s/Actin: 1.256 and 1.21 and 1.297 and 1.076
[3]; 20 μM
  Relative XBP1s/Actin: 1.065 and 0.9931 and 0.9536 and 0.8918
[4]; 0.003 μM
  Relative XBP1s/Actin: 11.684 and 10.815 and 12.821 and 10.854
[4]; 0.009 μM
  Relative XBP1s/Actin: 11.469 and 10.431 and 11.317 and 10.144
[4]; 0.027 μM
  Relative XBP1s/Actin: 12.267 and 11.074 and 12.013 and 10.900
[4]; 0.082 μM
  Relative XBP1s/Actin: 8.652 and 8.438 and 8.782 and 8.518
[4]; 0.247 μM
  Relative XBP1s/Actin: 4.629 and 4.592 and 4.962 and 3.379
[4]; 0.741 μM
  Relative XBP1s/Actin: 1.283 and 1.309 and 1.516 and 1.277
[4]; 2.22 μM
  Relative XBP1s/Actin: 1.103 and 1.024 and 1.015 and 0.976
[4]; 6.67 μM
  Relative XBP1s/Actin: 0.958 and 0.872 and 0.904 and 0.841
[4]; 20 μM
  Relative XBP1s/Actin: 1.096 and 1.163 and 1.053 and 0.889
[5]; 0.009 μM
  Relative IRE1α/Actin: 1.097 and 0.928 and 1.209 and 0.916
[5]; 0.027 μM
  Relative IRE1α/Actin: 1.090 and 0.987 and 1.064 and 0.939
[5]; 0.082 μM
  Relative IRE1α/Actin: 1.050 and 1.155 and 1.127 and 1.034
[5]; 0.247 μM
  Relative IRE1α/Actin: 1.053 and 1.161 and 1.037 and 0.961
[5]; 0.741 μM
  Relative IRE1α/Actin: 0.957 and 1.053 and 0.856 and 0.910
[5]; 2.22 μM
  Relative IRE1α/Actin: 1.022 and 0.873 and 1.063 and 1.025
[5]; 6.67 μM
  Relative IRE1α/Actin: 0.890 and 0.939 and 0.992 and 0.722
[5]; 20 μM
  Relative IRE1α/Actin: 1.131 and 1.096 and 0.934 and 0.949
[6]; 0.009 μM
  Relative IRE1α/Actin: 0.982 and 0.954 and 1.279 and 1.057
[6]; 0.027 μM
  Relative IRE1α/Actin: 1.271 and 1.075 and 1.281 and 1.112
[6]; 0.082 μM
  Relative IRE1α/Actin: 0.845 and 0.871 and 0.924 and 0.835
[6]; 0.247 μM
  Relative IRE1α/Actin: 0.966 and 1.085 and 1.076 and 0.890
[6]; 0.741 μM
  Relative IRE1α/Actin: 0.990 and 1.042 and 1.123 and 0.879
[6]; 2.22 μM
  Relative IRE1α/Actin: 1.133 and 1.010 and 1.231 and 1.072
[6]; 6.67 μM
  Relative IRE1α/Actin: 1.059 and 0.972 and 1.144 and 0.971
[6]; 20 μM
  Relative IRE1α/Actin: 1.034 and 0.915 and 0.978 and 0.882
[7]; 0.003 μM
  Relative IRE1α/Actin: 1.012 and 1.008 and 1.050 and 0.980
[7]; 0.009 μM
  Relative IRE1α/Actin: 0.917 and 0.954 and 1.053 and 0.909
[7]; 0.027 μM
  Relative IRE1α/Actin: 1.104 and 0.811 and 1.025 and 1.043
[7]; 0.082 μM
  Relative IRE1α/Actin: 0.794 and 0.825 and 1.037 and 0.844
[7]; 0.247 μM
  Relative IRE1α/Actin: 0.885 and 0.861 and 0.831 and 0.823
[7]; 0.741 μM
  Relative IRE1α/Actin: 0.783 and 0.766 and 0.908 and 0.750
[7]; 2.22 μM
  Relative IRE1α/Actin: 0.956 and 0.812 and 1.017 and 0.944
[7]; 6.67 μM
  Relative IRE1α/Actin: 0.712 and 0.683 and 0.754 and 0.735
[7]; 20 μM
  Relative IRE1α/Actin: 1.089 and 1.044 and 0.863 and 0.952

## CC1(c2nc(-c3ccc(NC(=O)Nc4cccc(F)c4)c4ccccc34)c3c(N)nccn23)CC1 [KIRA7]
[1]
  IC50: 0.11 µM

## COc1cc2c(C)c(CC(=O)N3CCOCC3)c(=O)oc2c(C=O)c1O [MCK8866]
[1]
  IC50: 0.39 µM

## COCCOCCc1c(C)c2cc(OC)c(O)c(C=O)c2oc1=O [MCK9989]
[1]
  IC50: 0.29 µM

## O=S(=O)(N=Cc1c(O)ccc2ccccc12)c1cccs1 [STF-083010]
[1]
  IC50: 25 µM

## CN[C@@H]1C[C@H]2O[C@@](C)([C@@H]1OC)n1c3ccccc3c3c4c(c5c6ccccc6n2c5c31)C(=O)NC4 [STS, staurosporine, reference compound]
[8]
  effect on IRE1α RNase activity in the FRET assay: activated the RNase activity
[9]
  effect on p-IRE1α RNase activity in the FRET assay: did not affect the RNase activity
[10]
  effect on p-IRE1α dimerization/oligomerization: did not affect the dimerization and oligomerization
